# Source: patent publication US20030135173A1 (priority 2001, published 2003)
# Like-named read-outs stand apart in the source and are kept apart here.
# Experiments:
# [1] = test system: S. aureus (MN8); test: microbe, parasite or virus in culture; format: cell-based; conditions: Staphylococcus aureus; for inhibition at 0.2 %: 0.2% test compound; for inhibition at 0.5 %: 0.5% test compound
# [2] = test system: S. aureus FRI-1169; format: cell-based, Staphylococcus aureus
# [3] = test system: S. aureus strain RN 6390; format: cell-based, Staphylococcus aureus
# [4] = test system: S. aureus FRI-1187; format: cell-based, Staphylococcus aureus
# [5] = test system: S. aureus FRI-1187; format: cell-based, Staphylococcus aureus; remark: listed apart in the source
# [6] = read-out: Reduction of Toxin %, Table 2
# [7] = read-out: Reduction of Toxin %, Table 4
# [8] = read-out: Reduction of Toxin %, Table 3
smiles,measurement,setting,value
O=C(O)c1ccccc1O [2-hydroxybenzoic acid],inhibition at 0.2 %,[1]; [6],93%
CC(=O)Nc1ccc(O)cc1 [4-Acetamidophenol],inhibition at 0.5 %,[1]; [7],79%
CC(=O)N[C@@H](Cc1ccc(O)cc1)C(=O)O [Acetyl tyrosine],inhibition at 0.5 %,[1]; [8],69%
O=C(O)c1cc(O)c(O)c(O)c1 [Gallic acid],inhibition at 0.5 %,[1]; [8],95%
OCCc1ccccc1 [Phenylethyl alcohol],effect on the growth of S. aureus cells,[2],"minimal, if any, effect"
same,production of the alpha toxin,[3],significantly reduced
same,amount of exotoxin production,[4],significantly reduced
same,inhibition at 0.5 %,[1]; [6],97%
same,inhibition at 0.5 %,[1]; [8],98%
same,inhibition at 0.5 %,[1]; [7],98%
same,effect on the growth of S. aureus cells,[5],"minimal, if any, effect"
O=C(O)/C=C/c1ccccc1 [Trans-cinnamic acid],inhibition at 0.5 %,[1]; [8],82%
Nc1ccc(C(=O)O)cc1 [p-aminobenzoic acid],inhibition at 0.2 %,[1]; [6],89%
"COC(=O)c1ccc(O)cc1 [p-hydroxybenzoic acid, methyl ester]",production of the alpha toxin,[3],significantly reduced
same,inhibition at 0.2 %,[1]; [6],82%
